Test systems include ACHN renal; CAKI-1 renal; HCT-15 colon; HL-60(TB) leukemia; NCI-H226 lung; SN12C renal; SW-620 colon; TK-10 renal; HOP-62 NSCLC; SR leukemia.
What all share (assay): NCI tumour cell line growth inhibition, 48 h

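Cells were grown in 96-well plates and exposed to each compound for 48 hours at five concentrations; endpoints were interpolated linearly between bracketing concentrations, or set to the highest concentration if not reached. GI50 marks 50% less growth. TGI: concentration producing complete growth inhibition.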 Bounds are passed on as bounds.

As to `Cc1c(C(=O)CC(=O)C(=O)Nc2ccc(Cl)cc2)[n+](=O)c2ccccc2n1[O-]`, the TGI with ACHN renal, with CAKI-1 renal, with HCT-15 colon, in the experiment on HL-60(TB) leukemia, in the experiment on NCI-H226 lung and in the experiment with SN12C renal was greater than 100 µM in each case. Besides, the TGI with SW-620 colon and in the experiment with TK-10 renal was greater than 100 µM throughout.

For `COc1ccc(S(=O)(=O)N/N=C/c2cc(I)cc([N+](=O)[O-])c2O)cc1OC`, the TGI in the experiment with ACHN renal was greater than 100 µM; in the experiment on CAKI-1 renal, 85.3 µM; in the experiment with HCT-15 colon it was greater than 100 µM; in the experiment with HL-60(TB) leukemia, 57.5 µM; with NCI-H226 lung, 62.1 µM; with SN12C renal, greater than 100 µM. Moreover, the TGI with SW-620 colon and in the experiment on TK-10 renal was greater than 100 µM in each case.

As for `CC(NCCC(=O)N(CCC(=O)N(CCC(=O)N(CCC(=O)N(CCC(=O)N(CCC(=O)N(CCC(=O)N(CCC(=O)N(CCC(=O)N(CCC(=O)O)[C@H](C)c1ccccc1)[C@H](C)c1ccccc1)[C@H](C)c1ccccc1)[C@H](C)c1ccccc1)[C@H](C)c1ccccc1)[C@H](C)c1ccccc1)[C@H](C)c1ccccc1)[C@H](C)c1ccccc1)[C@H](C)c1ccccc1)c1ccccc1` (some centres not stated), the GI50 in the experiment with ACHN renal is 5.05 µM; with CAKI-1 renal it was 3.49 µM; in the experiment with HCT-15 colon, 3.22 µM; in the experiment on HL-60(TB) leukemia, 2.44 µM; with HOP-62 NSCLC, 1.99 µM; in the experiment on NCI-H226 lung, 3.62 µM. Moreover, the values for the GI50 in the experiment with SN12C renal, with SW-620 colon and in the experiment on TK-10 renal were 3.66 µM, 2.91 µM and 3.38 µM, respectively. The TGI in the experiment with ACHN renal is greater than 43.9 µM; in the experiment with CAKI-1 renal, greater than 45.1 µM; in the experiment on HCT-15 colon, greater than 27 µM; in the experiment on HL-60(TB) leukemia it was 13.9 µM; with HOP-62 NSCLC, 6.93 µM; in the experiment with NCI-H226 lung, 20.2 µM. Also, the TGI with SN12C renal is greater than 75 µM; in the experiment on SW-620 colon it was greater than 35 µM; in the experiment with TK-10 renal it was 23.2 µM.

`FC(F)(F)c1ccc(C#Cc2ccccc2C#Cc2ccccc2)cc1`: the GI50 in the experiment with ACHN renal was 40.9 µM; in the experiment with CAKI-1 renal, 46.1 µM; in the experiment on HCT-15 colon, 35.1 µM; with HOP-62 NSCLC, 52.5 µM; in the experiment on NCI-H226 lung it was 30.1 µM; in the experiment on SW-620 colon, 30.6 µM. For the same compound, in the experiment on TK-10 renal, the GI50 is 31.7 µM. The TGI was greater than 100 µM in the experiment with ACHN renal; greater than 100 µM in the experiment on CAKI-1 renal; greater than 100 µM with HCT-15 colon; greater than 100 µM in the experiment with HOP-62 NSCLC; 99.9 µM in the experiment with NCI-H226 lung; greater than 100 µM in the experiment with SW-620 colon. This compound also displayed a TGI with TK-10 renal greater than 100 µM.

In the case of `CCCCCCCCCCCCOC1C(C(COC2OC(C3COC(C)(C)O3)C3OC(C)(C)OC23)NC(=O)NS(=O)(=O)c2ccccc2)OC2OC(C)(C)OC21` (configuration not stated), the GI50 is 4.22 µM in the experiment on ACHN renal; 7.14 µM in the experiment with CAKI-1 renal; 3.68 µM with HCT-15 colon; 0.406 µM in the experiment with HL-60(TB) leukemia; 4.34 µM in the experiment with HOP-62 NSCLC; 6 µM in the experiment on NCI-H226 lung. For the same compound, the GI50 with SN12C renal was 3.95 µM; with SW-620 colon, 5.14 µM; in the experiment on TK-10 renal, 5.96 µM. For the same compound, the TGI with ACHN renal turned out to be 15.2 µM; in the experiment on CAKI-1 renal, 20 µM; in the experiment on HCT-15 colon, 15 µM; with HL-60(TB) leukemia, 2.69 µM; in the experiment with HOP-62 NSCLC, 14.5 µM; in the experiment with NCI-H226 lung, 45.8 µM. In addition, the results for the TGI in the experiment with SN12C renal, in the experiment on SW-620 colon and in the experiment on TK-10 renal were 15.2 µM, 18.5 µM and 19.6 µM, respectively.

Regarding `Nc1nc(N)c2c(n1)NC(c1ccc(F)cc1)C1CCc3ccccc3C1=N2` (configuration not stated), the GI50 in the experiment with ACHN renal is 4.96 µM; in the experiment with CAKI-1 renal, 2.72 µM; in the experiment on HCT-15 colon it was 3.99 µM; with HOP-62 NSCLC, 6 µM; in the experiment on NCI-H226 lung, 5.97 µM; in the experiment with SN12C renal, 7.8 µM. Also, the results for the GI50 with SR leukemia, in the experiment on SW-620 colon and with TK-10 renal were 1.65 µM, 4.87 µM and 3.63 µM, respectively. Further, the TGI with ACHN renal stood at 17.8 µM; with CAKI-1 renal, 16.2 µM; in the experiment with HCT-15 colon it was 16.5 µM; with HOP-62 NSCLC, 19.8 µM; with NCI-H226 lung, 24.5 µM; with SN12C renal, 21.6 µM. Moreover, the TGI in the experiment on SR leukemia amounted to 4.14 µM; in the experiment on SW-620 colon, 17.4 µM; in the experiment on TK-10 renal, 16.9 µM.

For the compound `CN(C)CCNC(=O)c1cccc2[nH]c(-c3cccnc3)nc12`, the TGI with ACHN renal is 37 µM; with CAKI-1 renal, 88.1 µM; in the experiment with HCT-15 colon, 79.6 µM; with HL-60(TB) leukemia, greater than 100 µM; with HOP-62 NSCLC, 44.1 µM; in the experiment on NCI-H226 lung it was 56.6 µM. In addition, the TGI in the experiment on SN12C renal turned out to be 54.4 µM; with SW-620 colon, 42.1 µM; in the experiment on TK-10 renal, 53.5 µM.

Regarding `O=C(O)CNS(=O)(=O)c1ccc(NC(=O)CI)cc1`, the TGI is greater than 100 µM in the experiment with ACHN renal; greater than 100 µM in the experiment with CAKI-1 renal; 41.5 µM with HCT-15 colon; 37.5 µM in the experiment with HL-60(TB) leukemia; greater than 100 µM in the experiment with NCI-H226 lung; greater than 100 µM in the experiment on SN12C renal. In addition, the TGI in the experiment with SW-620 colon was 39.6 µM; in the experiment with TK-10 renal it was greater than 100 µM.

`O=c1[nH]c(=O)c2cc(C3CC(O)C(CO)O3)ccc2[nH]1` (configuration not stated): the GI50 in the experiment with CAKI-1 renal was greater than 100 µM; in the experiment on HCT-15 colon, 93.3 µM; with HOP-62 NSCLC it was greater than 100 µM; with NCI-H226 lung it was greater than 100 µM; with SN12C renal, greater than 100 µM; in the experiment with SW-620 colon, greater than 100 µM. Besides, the TGI in the experiment with CAKI-1 renal, in the experiment on HCT-15 colon, in the experiment on HOP-62 NSCLC, in the experiment on NCI-H226 lung, with SN12C renal and with SW-620 colon was greater than 100 µM throughout.

On to `Cc1ccc2nc(-c3ccccc3)c(N=O)n2c1`, for which the TGI in the experiment with ACHN renal is greater than 100 µM; in the experiment on CAKI-1 renal, greater than 100 µM; in the experiment on HCT-15 colon, greater than 100 µM; in the experiment with HOP-62 NSCLC, greater than 100 µM; with NCI-H226 lung, greater than 100 µM; with SN12C renal it was 61 µM. Besides, the TGI with SW-620 colon and in the experiment with TK-10 renal was greater than 100 µM throughout.

Turning to `NCCN.NCCN.O=C([O-])CCl.O=C([O-])CCl.[Co+3].[O-][Cl+3]([O-])([O-])[O-]`, the GI50 in the experiment on ACHN renal, with HCT-15 colon, in the experiment on HOP-62 NSCLC, in the experiment on SN12C renal, with SW-620 colon and with TK-10 renal was greater than 100 µM throughout. In addition, the TGI in the experiment with ACHN renal, in the experiment with HCT-15 colon, in the experiment on HOP-62 NSCLC, in the experiment on SN12C renal, in the experiment with SW-620 colon and in the experiment on TK-10 renal was greater than 100 µM throughout.

Turning to `Cc1ccc([N+](=O)[O-])cc1NC(=O)c1cccc([N+](=O)[O-])c1O`, the TGI is 95.9 µM with ACHN renal; 89.7 µM with CAKI-1 renal; greater than 100 µM in the experiment on HCT-15 colon; 34.4 µM in the experiment on HL-60(TB) leukemia; 34 µM in the experiment with HOP-62 NSCLC; 51.9 µM with NCI-H226 lung. The figures for the TGI in the experiment on SN12C renal, with SW-620 colon and in the experiment with TK-10 renal were greater than 100 µM, greater than 100 µM and 93.8 µM, respectively.

Regarding `CCC[CH2][Sn]([CH2]CCC)([CH2]CCC)[O]C(=O)c1ccc(Cl)cc1Cl`, the GI50 in the experiment on ACHN renal is 0.171 µM; in the experiment with CAKI-1 renal, 0.0785 µM; in the experiment on HCT-15 colon, 0.173 µM; in the experiment with HL-60(TB) leukemia, 0.187 µM; in the experiment on HOP-62 NSCLC it was 0.164 µM; with SN12C renal it was 0.145 µM. The GI50 is 0.158 µM with SW-620 colon and 0.132 µM in the experiment on TK-10 renal. For the same compound, the TGI in the experiment with ACHN renal came out at 0.34 µM; with CAKI-1 renal it was 0.255 µM; with HCT-15 colon, 0.419 µM; in the experiment with HL-60(TB) leukemia it was 0.494 µM; with HOP-62 NSCLC, 0.319 µM; with SN12C renal, 0.35 µM. Further, the results for the TGI in the experiment with SW-620 colon and in the experiment with TK-10 renal were 0.335 µM and 0.267 µM, respectively.

As to `CNCCNc1c2c(c(NCCNC)c3[nH]ccc13)C(=O)c1ccccc1C2=O`, the GI50 in the experiment with ACHN renal was 0.0434 µM; in the experiment on CAKI-1 renal it was 0.278 µM; in the experiment on HCT-15 colon, 0.115 µM; with HL-60(TB) leukemia, 0.195 µM; in the experiment with HOP-62 NSCLC it was 0.135 µM; with NCI-H226 lung it was 0.215 µM. Besides, the GI50 in the experiment with SN12C renal is less than 0.0257 µM; with SW-620 colon, 0.299 µM; in the experiment on TK-10 renal it was 0.183 µM. The TGI with ACHN renal came out at 0.306 µM; in the experiment with CAKI-1 renal, 1.15 µM; with HCT-15 colon it was 0.761 µM; in the experiment with HL-60(TB) leukemia it was 0.838 µM; with HOP-62 NSCLC, 0.543 µM; in the experiment on NCI-H226 lung, 1.84 µM. In addition, the TGI with SN12C renal was 0.097 µM; in the experiment with SW-620 colon it was 0.804 µM; with TK-10 renal, 0.502 µM.

On to `Cc1cc(NS(=O)(=O)c2ccc(NC(=O)c3ccc(Cl)c4c(Nc5ccc(S(=O)(=O)N=C(N)N)cc5)c5ccccc5nc34)cc2)no1`, for which the TGI in the experiment on ACHN renal was greater than 100 µM; in the experiment on HCT-15 colon it was greater than 100 µM; with HOP-62 NSCLC, 97.7 µM; in the experiment with SN12C renal, greater than 100 µM; in the experiment on SR leukemia, 67.9 µM; in the experiment on TK-10 renal, greater than 100 µM.

The record behind these values is PubChem BioAssay (NCI).
